Our source for the Normal melting temperature values is the NIST ThermoML archive (doi:10.1016/j.fluid.2018.11.001).

Numbers after ± are expanded uncertainties.

The conditions of this data set: Crystal; visual observation.

With `CCn1cc[n+](C)c1.Cc1ccc(S(=O)(=O)[O-])cc1` [1-ethyl-3-methylimidazolium 4-methylbenzenesulfonate], the Normal melting temperature was found to be 54.2 ± 0.7 °C. Next, `CCn1cc[n+](C)c1.[Br-]` [1-ethyl-3-methylimidazolium bromide]: 77.1 ± 0.7 °C.
